The source of these data is paper PMC3006138, “Fexinidazole – A New Oral Nitroimidazole Drug Candidate Entering Clinical Development for the Treatment of Sleeping Sickness” (PLoS Neglected Tropical Diseases, 2010).

Values joined by “and” are separate entries in the source; they are usually repeats but may differ in a detail not shown here. Identical values can stand only once. Like-named read-outs stand apart in the source and are kept apart here.

The nature of series [1]: Hepatocyte intrinsic clearance and metabolite profile. It counts as in vitro ADME, cynomolgus monkey. The settings on record: male, cynomolgus, cynomolgus monkey, cryopreserved hepatocytes, 1 µM. As to the method:
(§1) Fexinidazole was incubated with cryopreserved hepatocytes from male CD-1 mice, male Sprague Dawley rats, male beagle dogs, male cynomolgus monkeys, and from pooled white or African-American human donor samples (purchased commercially), at concentrations of 1 µM and 10 µM. […] The incubated samples were analyzed by LC-MS after extraction into acetonitrile.
(§2) A quality control analysis of fexinidazole was performed via 1H-NMR in DMSO and LC- […]
(§3) provided by the Swiss Tropical Institute (Basel, Switzerland).
(§4) Reagents and solvents were of analytical grade and obtained from Sigma-Aldrich (St. Louis, […]
(§5) Cryopreserved hepatocytes from the male CD1 mouse, lot CSI; male Sprague Dawley rat, lot LPL; male beagle dog, lot BWX; male cynomolgus monkey, lot EHH; and pooled human samples, lot MJI, were purchased from In Vitro Technologies Inc (Baltimore, Maryland, […]
(§6) 5.4. In vitro Incubations
(§7) On the day of the experiment a 10 mM stock solution of fexinidazole in DMSO was prepared and, within 3 hours, aliquots of this freshly prepared solution, after suitable dilution, were added to the incubation matrix, to reach fexinidazole final concentrations of 1 and 10 µM. The final percentage of DMSO was 0.01% in the incubation samples for the […]
(§8) On the day of experiment, the cryopreserved hepatocytes were thawed following the detailed instructions provided by the supplier.
(§9) The number of viable cells was determined using a Trypan Blue exclusion method.
(§10) 5.4.1. Intrinsic Clearance Study […]
(§11) µM with mouse, rat, dog, monkey and human hepatocytes (300000 cells/mL for the mouse and 1 million cells/mL for the other species) in a final incubation volume of 0.75 mL […]
(§12) Incubations were performed in duplicate in a 48-well plate under shaking. Sampling was performed using an automatic liquid handling system (Multiprobe II EX, Packard). At 0, 1, 5, 10, 15, 20, 30, 60 and 120 minutes, 50 µL aliquots of the incubates were taken, then 80 µL of ice-cold acetonitrile and 20 µL of 1 µM warfarin in acetonitrile (internal standard) were added, and samples centrifuged at 2000 rpm for 20 min. The supernatant was analyzed by LC-MS/MS. […]
(§13) the medium alone at t = 0 and 120 minutes.
(§14) For the determination of phase I and phase II activity of hepatocytes, 7-ethoxycoumarin (7-EC) 1 µM, and 7-hydroxycoumarin (7-HC) 30 µM were used as positive controls and incubated under the same conditions as fexinidazole. Aliquots of incubates were taken at 0, 10, 20, 30, 60 and 120 minutes and processed as fexinidazole samples.
(§15) 5.4.2. Metabolite Profile Study
(§16) For metabolite profiling, fexinidazole was incubated at a concentration of 10 µM with mouse, rat, dog, monkey and human hepatocytes (300000 cells/mL for the mouse and 1 million cells/mL for the other species) in a final incubation volume of 2 mL Leibovitz L-15 […]
(§17) Aliquots of the incubation samples were taken at t = 0, 30 and 120 minutes; the metabolism was stopped by the addition of an equal volume of cold acetonitrile and the samples centrifuged at 1500 rpm for 20 min. The supernatant was stored at -20°C until analysis. Control incubations were performed with the compound in the medium alone […]
(§18) 5.5. Analysis of Samples for Intrinsic Clearance Determination
(§19) The analysis of the samples for intrinsic clearance determination was performed by an LC-MS/MS method, using the following conditions:
(§20) HPLC Equipment and Conditions
(§21) HPLC system Agilent 1100 binary pump (Agilent, Palo Alto, USA)
(§22) Autosampler CTC Pal (Alfatech, San Jose, USA)
(§23) Analytical column Guard Column SB-C8 4.6 x 12.5 mm, 5 µm (Zorbax)
(§24) Column temperature ambient
(§25) Mobile phase A 10 mM ammonium formate pH 4.0: acetonitrile (95:5, v:v)
(§26) Mobile phase B 10 mM ammonium formate pH 4.0: acetonitrile (5:95, v:v) […]
(§27) Gradient conditions Step Total time (min) flow (µL/min) %A % B […]
(§28) MS Equipment and Conditions
(§29) Mass spectrometer API 4000 Triple Quadrupole (MDS-Sciex, Toronto, […]
(§30) Source Turbo Ion Spray (TIS)
(§31) Ion mode Positive for fexinidazole and 7-EC.
(§32) Negative for 7-HC, 7-HC sulphate and 7-HC glucuronide.

Assay in series [2]: as above
It counts as in vitro ADME, human. The following applies: human. As to the method:
as §1
Fexinidazole sulfoxide, lot 1106-I-0170, 99.3% purity, and fexinidazole sulfone, lot 1106-I-0171, 99.9% purity, were provided by the Sponsor.
Cryopreserved hepatocytes of five single donors, lots EHI, REL, KSE […]
ZIJ and MRS, were purchased from In Vitro Technologies Inc (Baltimore, Maryland, USA).
The certificates of analysis are reported in Appendix 1.
as §4
7.5. In Vitro Incubations
as §7
The cryopreserved hepatocytes were thawed according to the supplier’s procedure and the number of viable cells was determined using the Trypan Blue exclusion method. Viabilities were 92% for lot EHI, 89% for lot REL, 82% for lot KSE, 86% for lot ZIJ and 86% for lot MRS in the intrinsic clearance study. In the metabolite profile study viabilities were 91% for lot EHI, 90% for lot REL, 85% for lot KSE, 84% for lot ZIJ and 87% for lot MRS.
Afterwards, the same amount of viable cells for each donor were pooled and used for the incubations of fexinidazole.
7.5.1. Intrinsic Clearance Study […]
µM with pooled human hepatocytes (1 million cells/mL) in a final incubation volume of 1 mL Leibovitz L-15 medium, at 37°C. Incubations were performed in duplicate in a 48-well plate under shaking. Sampling was performed using an automatic liquid handling system (Multiprobe II EX, Packard). At 0, 1, 5, 10, 15, 20, 30, 60 and 120 minutes, 50 µL aliquots of the incubates were taken, then 80 µL of ice-cold acetonitrile and 20 µL of 1 µM warfarin in acetonitrile (internal standard) were added, and samples centrifuged at 2000 rpm for 20 min. The supernatant was analyzed by LC-MS/MS. […]
The chemical stability of fexinidazole was checked by incubating the compound at 37°C in the medium alone at t = 0 and 120 minutes.
For the determination of phase I and phase II activities of hepatocytes, 7-ethoxycoumarin (7-ETC) 1 µM, and 7-hydroxycoumarin (7-HC) 30 µM were used as positive controls and incubated under the same conditions as fexinidazole. Aliquots of incubates were taken at 0, 1, 5, 10, 15, 20, 30, 60 and 120 minutes and processed as fexinidazole samples.
7.5.2. Metabolite Profile Study
For metabolite profiling, fexinidazole was incubated at a concentration of 10 µM with pooled human hepatocytes (1 million cells/mL) in a final incubation volume of 2 mL Leibovitz L-15 medium, at 37°C. Aliquots of the incubation samples were taken at t = 0, 30 and 120 minutes; the metabolism was stopped by the addition of an equal volume of cold acetonitrile and the samples centrifuged at 1100 rpm for 20 min. The supernatant was stored at -20°C until analysis. Control incubations were performed with the compound in the medium alone for 120 minutes.
7.6. Analysis of the Samples of Intrinsic Clearance Study
as §19, §20
HPLC system 1100 binary pump (Agilent, Palo Alto, USA)
Autosampler 2777 (Waters)
as §23, §24, §25, §26, §27

Assay in series [3]: as above
The following applies: male, beagle, dog, cryopreserved hepatocytes, 1 µM. The format is in vitro ADME, dog. As to the method:
as §1, §2, §3, §4, §5, §6, §7, §8, §9, §10, §11, §12, §13, §14, §15, §16, §17, §18, §19, §20, §21, §22, §23, §24, §25, §26, §27, §28, §29, §30, §31, §32

Assay in series [4]: as above
It counts as in vitro ADME, human. The following applies: human, cryopreserved pooled hepatocytes, 1 µM. The method, then:
as §1, §2, §3, §4, §5, §6, §7, §8, §9, §10, §11, §12, §13, §14, §15, §16, §17, §18, §19, §20, §21, §22, §23, §24, §25, §26, §27, §28, §29, §30, §31, §32

Assay in series [5]: as above
It counts as in vitro ADME, rat. The settings on record: male, Sprague Dawley, rat, cryopreserved hepatocytes, 1 µM. As to the method:
as §1, §2, §3, §4, §5, §6, §7, §8, §9, §10, §11, §12, §13, §14, §15, §16, §17, §18, §19, §20, §21, §22, §23, §24, §25, §26, §27, §28, §29, §30, §31, §32

Assay in series [6]: as above
It counts as in vitro ADME, mouse. The following applies: male, CD-1, mouse, cryopreserved hepatocytes, 1 µM. As to the method: as §1, §2, §3, §4, §5, §6, §7, §8, §9, §10, §11, §12, §13, §14, §15, §16, §17, §18, §19, §20, §21, §22, §23, §24, §25, §26, §27, §28, §29, §30, §31, §32

A short description of a further series: in vivo. The settings on record: male, NMRI, mouse, po, 200 mg/kg/day.
The test system of series [7] is T. b. rhodesiense (STIB 900). The series can be described thus: In vitro trypanocidal assay (Alamar Blue). The following applies: Trypanosoma brucei, 72 h, read-out: IC50. The format is cell-based, Trypanosoma brucei rhodesiense. As to the method:
(§33) 10 µL of Alamar Blue was added for the final 3 h to determine viability. […] The IC50 values were calculated from the sigmoidal inhibition curves. For cytotoxicity, 4×10^4/mL L-6 rat skeletal myoblast cells were used, and incubations and assessments carried out as above.
In general terms: Resazurin is reduced to fluorescent resorufin, in cell work by metabolically active cells.

The next series deals with L-6 rat myoblast cells. The experiment in a line: Cytotoxicity assay. It counts as cell-based. The following applies: 72 h, read-out: IC50. The method, then:
as §33

For series [8], the system named is T. b. gambiense (STIB 930). The series can be described thus: In vitro trypanocidal assay (Alamar Blue). The format is cell-based, Trypanosoma brucei gambiense. The following applies: Trypanosoma brucei, 72 h; read-out: IC50. As to the method: Parasites were cultured with or without the test article at a concentration of 3×10^4/mL in Minimal Essential Medium, according to Baltz et al., with the following modifications: 0.2 mM 2-mercaptoethanol, 1 mM Na-pyruvate, 0.5 mM hypoxanthine and 15% heat inactivated horse serum at 37°C in 5% CO2 in 96-well microtitre plates for 72 h. 10 µL of Alamar Blue was added for the final 3 h to determine viability. The assay was assessed by reading the fluorescence in each well at an excitation wavelength of 536 nm and at an emission wavelength of 588 nm. The IC50 values were calculated from the sigmoidal inhibition curves. For cytotoxicity, 4×10^4/mL L-6 rat skeletal myoblast cells were used, and incubations and assessments carried out as above.

Series [9] can be described thus: One-electron reduction potential by pulse radiolysis. The format is physicochemical. The method, then:
One-electron reduction potentials were determined by pulse radiolysis following an established procedure.

Experimental for in vivo: The study was conducted according to the study protocol [1].
gavage daily for 5 consecutive days at a dose of 200 mg/kg in a 5 % tween 80/ 0.5 %
Formulation Preparation and Concentration Check
were prepared according to the procedure already developed [2]; a sufficient volume of each
suspension was prepared in order to support the 5-day repeated oral administration. The
suspensions were stored at +4°C. The supportive stability data for the Fexinidazole
suspension after 7 days at +4°C was performed.
a specific, not validated, HPLC-UV method [2]. Three samples were analyzed for each
Sample Collection and Handling
About 0.05-0.07 mL of blood/sampling time were taken from the saphenous vein using
heparinized tubes (pre-cooled in an ice/water bath) and were centrifuged at 10000g for 3
minutes at 4°C. The separated plasma was stored at -80°C until analysis. Blood was taken at
validated LC-MS-MS methods.
Pharmacokinetic Calculations
Pharmacokinetic evaluation was carried out using a non-compartmental approach with the
aid of the Watson package (v. 6.4.0.04, Thermo Fisher Scientific, Waltham, MA, USA).
For the calculations, pre-dose concentrations of both compounds were set equal to zero.
After both compounds, on Day 5, Cmax and tmax were read from the raw plasma data as the
coordinates of the highest measured concentration. The area under plasma concentration vs.
time curve to finite time, AUC0-t(last), was determined by the linear trapezoidal rule up to the
last detectable concentration. The half-life of the terminal phase, t1/2,z, was determined by
linear regression analysis of the natural-log concentration vs. time curve, where t1/2,z =
ln(2)/slope of the regression line.
Descriptive statistics (mean ± SD, %CV) were reported for plasma concentrations and
pharmacokinetic parameters sorted by compound.
reported to three significant figures.
Plasma concentrations of sulphoxide and sulphone Fexinidazole metabolites were determined
by a LC-MS-MS method. The lower limit of the bioanalytical method was 5 ng/mL (run 1)
(v. 6.4.0.04, Thermo Fisher Scientific, Waltham, MA, USA).
Pharmacokinetic evaluations of the sulphone and sulphoxide metabolites were carried out
using non-compartmental approach with the aid of the Watson package (v. 6.4.0.04, Thermo
Fisher Scientific, Waltham, MA, USA).
After both doses, for the calculations, the pre-dose concentrations of the metabolites were set
Cmax and tmax were read from raw data as the coordinates of the highest measured

As a reminder, the half-life is how long it takes for the measured level to halve. As to `CCOc1ccc2ccc(=O)oc2c1` [7-ethoxycoumarin, reference compound], the half-life at 1 µM was 2.5 min in series [1]; 6.4 min in series [2]; 1.7 min in series [3]; 4.8 min in series [4]; 13.2 min in [5]; 2.6 min in series [6]. Moreover, the CLint scaled at 1 µM was 1480 mL/min/kg in series [1] (read-out: CLint in vitro); 258 mL/min/kg in series [2] (read-out: CLint in vitro); 3110 mL/min/kg in [3] (read-out: CLint in vitro); 345 mL/min/kg in series [4] (read-out: CLint in vitro); 251 mL/min/kg in [5] (read-out: CLint in vitro); 2380 mL/min/kg in series [6] (read-out: CLint in vitro). Also, the hepatocyte CLint at 1 µM in series [1] (read-out: CLint in vitro) is 272 µL/min/1e6 cells; in series [2] (read-out: CLint in vitro) it was 108 µL/min/1e6 cells; in series [3] (read-out: CLint in vitro) it was 405 µL/min/1e6 cells; in series [4] (read-out: CLint in vitro) it was 144 µL/min/1e6 cells; in [5] (read-out: CLint in vitro) it was 52.4 µL/min/1e6 cells; in series [6] (read-out: CLint in vitro), 901 µL/min/1e6 cells.

For orientation: AUC(0-t) means the area under the concentration-time curve up to a stated or last time point. Higher therefore signals high exposure. As usually defined, the Cmax is the peak of the concentration-time curve. By Tmax is commonly meant the time from dosing to the highest level. What is called IC50 is the concentration that inhibits the measured activity by half. As to `CC1CS(=O)(=O)CCN1/N=C/c1ccc([N+](=O)[O-])o1` (centres unmarked) [Nifurtimox], in the series “in vivo”, the AUC(0-t) is 45700 ± 5880 ng·h/mL, the peak concentration (Cmax) came to 9250 ± 765 ng/mL, the time to peak (Tmax) came out at 90 ± 79.2 min and the half-life was 187 ± 87 min. In addition, the 50% inhibitory concentration (IC50) in series [7] was 0.4 µg/mL and 1.44 µM. The IC50 in the series with L-6 rat myoblast cells is 25 µg/mL and 87 µM. Further, the IC50 in [8] is 0.31 µg/mL and 1.08 µM.

For `Cc1ncc([N+](=O)[O-])n1CCO` [metronidazole, reference compound], the “single electron redox potential” value in [9] was −516 mV.
